Laboratory results published in US20210393547A1, “USE OF EMODIN IN TREATING RETINAL ISCHEMIA OR A DISEASE, CONDITION, OR DISORDER ASSOCIATED WITH RETINAL ISCHEMIA” (priority 2020, published 2021).

How the values were obtained:
[1] = test system: retinal ganglion cells (RGC) in ischemic retina of Wistar rats; assay: Retrograde fluorogold labeling of RGCs after retinal ischemia/reperfusion; format: in vivo, rat; settings: n=4, mean±SE
Method: Emodin was purchased from Sigma-Aldrich (E7881; 90%; storage at 2-8° C.; from Frangula bark; St. Louis, Mo., United States). Drug administration for different procedures, namely ERG, fluorogold RGC labelling, cresyl violet retinal staining and Western blot assays, were described in Tables 3 to 6. Vehicle or emodin (5 μL) was administered via an intravitreous injection route so that these agents were then able to be directly diffused to the target. Emodin was dissolved in vehicle (DMSO:distilled water=1:3). The defined final cellular concentrations of administered drug were 0.25 or 0.5 μM, which were achieved after 40 times dilution from the stock concentrations, namely 10 or 20 μM, based on an arbitrary definition of the vitreous volume as 200 μL. To test a wider range of dose-response, 4 μM of emodin was thus added in the animal experiments. The Vehicle+IR and Emo+IR groups (pre-ischemic administration of emodin 4, 10 or 20 μM) were subjected to following the experimental procedures; these were initial pre-ischemic intravitreous injection (vehicle or emodin), retinal ischemia induction 1 day later, and sacrifice of the animal on the following day to allow the various post-mortem procedures except ERG. […] Finally, the samples were then analyzed by fluorescent microscopy. The RGC density was defined as the total RGC amount divided by the whole retinal area and its mean was then calculated.

[2] = test system: VEGF; assay: Western blot of ischemic retina, VEGF to β-actin ratio; format: in vivo, rat; settings: n=6, mean±S.E
Method: Emodin was purchased from Sigma-Aldrich (E7881; 90%; storage at 2-8° C.; from Frangula bark; St. Louis, Mo., United States). Drug administration for different procedures, namely ERG, fluorogold RGC labelling, cresyl violet retinal staining and Western blot assays, were described in Tables 3 to 6. Vehicle or emodin (5 μL) was administered via an intravitreous injection route so that these agents were then able to be directly diffused to the target. Emodin was dissolved in vehicle (DMSO:distilled water=1:3). The defined final cellular concentrations of administered drug were 0.25 or 0.5 μM, which were achieved after 40 times dilution from the stock concentrations, namely 10 or 20 μM, based on an arbitrary definition of the vitreous volume as 200 μL. To test a wider range of dose-response, 4 μM of emodin was thus added in the animal experiments. […] Denatured proteins were then obtained using lysis buffer (mammalian protein extraction reagent; […]), the samples were then sonicated and quantified to give equivalent amounts of 30 μg/30 μl/well. […] Finally, the PVDF membranes were then developed using an enhanced chemiluminescent analysis system ([…]) and scanned using an imager (Amersham Imager; LifeSciences); the amount of each protein was quantified according to scanning densitometry.

## Cc1cc(O)c2c(c1)C(=O)c1cc(O)cc(O)c1C2=O [emodin, 6-methyl-1,3,8-trihydroxyanthraquinone]
[1]; Emo10+IR: pre-ischemic intravitreous 10 μM emodin, P<0.01, Sham 5323.53, Vehicle+IR 2069.12
  RGC density (retrograde fluorogold labeled): 3345.59±206.80 /0.17 mm^2
[1]; Emo20+IR: pre-ischemic intravitreous 20 μM emodin, P<0.001
  RGC density (retrograde fluorogold labeled): 4623.53±179.48 /0.17 mm^2
[2]; Emo10+IR: pre-ischemic intravitreous 10 μM emodin, Sham normalized to 1, Vehicle+IR 7.67
  ratio of VEGF to β-actin protein level: 3.99±2.86
[2]; Emo20+IR: pre-ischemic intravitreous 20 μM emodin, P=0.03 vs Vehicle+IR, Sham normalized to 1
  ratio of VEGF to β-actin protein level: 1.23±0.44
